Assays:
[1] = system: streptozotocin-induced diabetic rat; assay: STZ diabetic rat model, AGEs and crosslinking of collagen; assay type: in vivo; conditions: for CML, CEL or pentosidine content of kidney collagen / gain in kidney weight / FL in skin collagen, below untreated diabetic animals / decrease of CML, CEL and fluorescence content of skin collagen toward non-diabetic levels / reduction of half-time for digestion of collagen toward normal / body weight / CML concentration in skin collagen / half-time for pepsin digestion of skin collagen / CEL in renal basement membrane collagen / CML in renal basement membrane collagen / Pentosidine in renal basement membrane collagen: diabetic rats; for FL in skin collagen, below untreated diabetic animals: 1 g/L in drinking water, week 28; for decrease of CML, CEL and fluorescence content of skin collagen toward non-diabetic levels / reduction of half-time for digestion of collagen toward normal: 7 months of diabetes; for body weight: 28 weeks; for CML concentration in skin collagen: drug in drinking water, end of study, untreated diabetic 0.124±0.01, non-diabetic 0.057±0.01; for half-time for pepsin digestion of skin collagen: control 90, untreated diabetic 450; for CEL in renal basement membrane collagen: untreated diabetic 0.08 ±0.01; for CML in renal basement membrane collagen: untreated diabetic 0.25 ± 0.04; for Pentosidine in renal basement membrane collagen: untreated diabetic 3.17 ± 1.10; for decrease in collagen-linked fluorescence toward values in non-diabetic rats: skin collagen
Experimental: Animal studies. Diabetes was induced by a single tail vein injection of 45 mg/kg of STZ in 0.1 M sodium citrate buffer, pH 4.5. Control animals were sham injected with buffer only. Diabetes was confirmed by measuring blood glucose levels at 2 and 3 days after the STZ-injection. Animals with plasma glucose higher than 16 mM were classified as diabetic. The diabetic rats were divided randomly into an untreated diabetic group (n=12) and two diabetic treatment groups, receiving either PM (n=13) or AG (n=12) at 1 g/L in drinking water. Two non-diabetic control groups were included, one receiving no treatment (n=13), the other receiving PM(HCl)2 at 2 g/L in drinking water (n=12); the higher dose of PM in the PM-treated control group was designed to compensate, in part, for the lower water intake of non-diabetic, compared to diabetic animals. All animals were housed individually with a light dark cycle of 12 hours each, and had free access to food and water. To maintain body weight and to limit hyperglycemia, diabetic animals received 3 IU of ultralente insulin (Humulin U, Eli Lilly) three times per week; this was increased to 5 IU after week 15 to adjust for the increase in body weight.
Glycemic control. Glycemia was monitored by measurement of plasma glucose and glycated hemoglobin every four weeks, using a Sigma Trinder assay Kit (Sigma # 315). Blood (non-fasting) was obtained from the tail vein, using heparinized microhematocrit tubes, followed by sedimentation of red blood cells (RBC) in a bench-top microhematocrit centrifuge. A sample of plasma (5 μL) or glucose standard was mixed with 300 μL of reagent in a 96-well microtiter plate. The plate was shaken for 18 min and the absorbance at 490 nm was measured in a Wallac Victor 1420 multilabel counter (Wallac Inc. Gaithersburg, Md.). Glycated hemoglobin (GlcHb) was measured on whole blood by boronate affinity chromatography using a Sigma kit for total glycated hemoglobin (Sigma # 442-B).
Necropsy and tissue sampling. Rats were treated according to the guidelines of the Institutional Animal Care and Use Committee of the University of South Carolina. Blood was drawn from anaesthetized (halothane) rats by heart puncture and transferred into heparinized vacutainer tubes on ice; an aliquot was removed for analysis of glycated hemoglobin. Rats were then killed by over-anesthetization, and liver and kidneys were removed, the kidney decapsulated, and both organs rinsed in PBS buffer, and weighed. The right kidney was cut in half transversely, and one half was removed for fixation for electron and light microscopy. The remainder of the right kidney and the whole left kidney were frozen at −70° C. until processed for isolation of collagen. Abdominal skin (2 cm^2) was also removed, rinsed in phosphate buffered saline (PBS) and stored at −70° C. Blood was separated into plasma and RBC within 30 minutes by centrifugation in a refrigerated benchtop centrifuge. RBCs were lysed in an equal volume of deionized water, and plasma and RBC lysates were stored at −70° C.
Isolation and analysis of collagen. The insoluble fraction of skin collagen was prepared by scraping the skin with a single-edged razor blade to remove hair and adventitious tissue, followed by a series of extractions with 0.5 M NaCl, 0.5 M acetic acid and chloroform/methanol (2:1 v/v), as described previously (Dyer, et al. 1993. J. Clin. Invest. 91:2463-2469). Total renal collagen was prepared from ˜1.5 kidneys by an adaptation of the procedure of Fox et al. (J. Biol. Chem. 256:9313-9315 (1981)). Briefly, kidneys were minced and homogenized with a hand-held glass homogenizer in 10 mL of ice-cold water, containing 1 mM EDTA and 0.05% sodium azide. Remaining intact cells and subcellular organelles were then lysed by addition of another 15 mL of water, followed by incubation for 1 hour at 4° C., then centrifugation of the lysate for 30 minutes at 10,000 rpm at 4° C. in a Beckman (Palo Alto, Calif.) J-21 centrifuge. […]

[2] = system: post-Amadori AGE formation, BSA Amadori intermediate; assay: Interrupted (post-Amadori) ribose glycation assay, BSA; assay type: biochemical, bovine
Experimental: ELISA detection of AGE products. The general method of Engvall (1981, Methods Enzymol. 70:419-439) was used to perform the ELISA. Typically, glycated protein samples were diluted to approximately 1.5 ug/ml in 0.1 M sodium carbonate buffer of pH 9.5 to 9.7. The protein was coated overnight at room temperature onto 96-well polystyrene plates by pippetting 200 ul of the protein solution in each well (0.3 ug/well). After coating, the protein was washed from the wells with a saline solution containing 0.05% Tween-20. The wells were then blocked with 200 ul of 1% casein in carbonate buffer for 2 h at 37° C. followed by washing. Rabbit anti-AGE antibodies were diluted at a titer of about 1:350 in incubation buffer, and incubated for 1 h at 37° C., followed by washing. In order to minimize background readings, antibodies R479 used to detect glycated RNase were raised against glycated BSA, and antibodies R618 used to detect glycated BSA and glycated Hb were raised against glycated RNase. An alkaline phosphatase-conjugated antibody to rabbit IgG was then added as the secondary antibody at a titer of 1:2000 or 1:2500 (depending on lot) and incubated for 1 h at 37° C., followed by washing. The p-nitrophenylphosphate substrate solution was then added (200 ul/well) to the plates, with the absorbance of the released p-nitrophenolate being monitored at 410 nm with a Dynatech MR 4000 microplate reader.
Glycation was first carried out by incubating protein (10 mg/ml) with 0.5 M ribose at 37° C. in 0.4 M phosphate buffer at pH 7.5 containing 0.2% sodium azide for 24 h in the absence of inhibitors. Glycation was then interrupted to remove excess and reversibly bound (Schiff base) sugar by extensive dialysis against frequent cold buffer changes at 4° C. The glycated intermediate samples containing maximal amount of Amadori product and little AGE (depending on protein) were then quickly warmed to 37° C. without re-addition of ribose. This initiated conversion of Amadori intermediates to AGE products in the absence or presence of various concentrations (typically 3, 15 and 50 mM) of prospective inhibitors. Aliquots were taken and frozen at various intervals for later analysis. The solutions were kept in capped tubes and opened only to remove timed aliquots that were immediately frozen for later carrying out the various analyses.

[3] = system: glycation of ribonuclease A (RNase); assay: Uninterrupted glycation of ribonuclease A with glucose, anti-AGE ELISA; assay type: biochemical, bovine; conditions: RNase 1 mg/ml, 1.0 M glucose, 6 weeks; inhibitors 0.5, 3, 15 and 50 mM
Experimental: Uninterrupted Glycation with Glucose Bovine serum albumin, ribonuclease A, and human hemoglobin were incubated with glucose at 37° C. in 0.4 M sodium phosphate buffer of pH 7.5 containing 0.02% sodium azide. The protein, glucose (at 1.0 M), and prospective inhibitors (at 0.5, 3, 15 and 50 mM) were introduced into the incubation mixture simultaneously. Solutions were kept in the dark in capped tubes. Aliquots were taken and immediately frozen until analyzed by ELISA at the conclusion of the reaction. The incubations were for 3 weeks (Hb) or 6 weeks (RNase, BSA).
ELISA detection of AGE products. The general method of Engvall (1981, Methods Enzymol. 70:419-439) was used to perform the ELISA. Typically, glycated protein samples were diluted to approximately 1.5 ug/ml in 0.1 M sodium carbonate buffer of pH 9.5 to 9.7. […] In order to minimize background readings, antibodies R479 used to detect glycated RNase were raised against glycated BSA, and antibodies R618 used to detect glycated BSA and glycated Hb were raised against glycated RNase. […] The p-nitrophenylphosphate substrate solution was then added (200 ul/well) to the plates, with the absorbance of the released p-nitrophenolate being monitored at 410 nm with a Dynatech MR 4000 microplate reader.

[4] = 24 h in 0.5 M ribose, then free ribose removed, 37° C.

Row | inhibition of antigenic AGE formation (ELISA) [3] | SMILES | CML, CEL or pentosidine content of kidney collagen [1] | gain in kidney weight [1] | FL in skin collagen, below untreated diabetic animals [1] | decrease of CML, CEL and fluorescence content of skin collagen toward non-diabetic levels [1] | reduction of half-time for digestion of collagen toward normal [1] | body weight [1] | CML concentration in skin collagen [1] | half-time for pepsin digestion of skin collagen [1] | CEL in renal basement membrane collagen [1] | CML in renal basement membrane collagen [1] | Pentosidine in renal basement membrane collagen [1] | decrease in collagen-linked fluorescence toward values in non-diabetic rats [1] | inhibition of post-Amadori AGE formation ([2]; 50 mM inhibitor) | inhibition of post-Amadori AGE formation [2, 4]
1 | – | N=C(N)NN [aminoguanidine, reference compound] | not a significant decrease | partially inhibit the gain in kidney weight | ~12% | ~50% | ~25% | weighed slightly less than the untreated diabetic group | 0.10±0.02 mmol/mol lysine | 300 min | 0.07 ± 0.008^C mmol/mol Lys | 0.24 ± 0.05 mmol/mol Lys | 2.47 ± 0.64^D μmol/mol Lys | ~40% | about 20% | Comparable results
2 | more effective that aminoguanidine | Cc1ncc(CO)c(CN)c1O [pyridoxamine] | not a significant decrease | partially inhibit the gain in kidney weight | ~12% | ~50% | ~25% | weighed slightly less than the untreated diabetic group | 0.092±0.02 mmol/mol lysine | 350 min | 0.08 ± 0.008 mmol/mol Lys | 0.23 ±0.03 mmol/mol Lys | 3.00 ± 0.90 μmol/mol Lys | ~40% | – | –
3 | more effective that aminoguanidine | Cc1ncc(C[n+]2csc(CCO[P@](=O)(O)OP(=O)(O)O)c2C)c(N)n1 [thiamine pyrophosphate] | – | – | – | – | – | – | – | – | – | – | – | – | – | inhibited AGE formation more effectively than the other B1 derivatives
